Patent US8338443B2, “Chemical compounds” (priority 2006, dated 2012)

Tests used:
[1] = tested on: Spodoptera littoralis; assay: Spodoptera littoralis (Egyptian cotton leafworm) cotton leaf disc spray test; assay type: in vivo; settings: foliar, 72 h, 200 ppm spray on cotton leaf discs, L1 larvae, mortality, repellent effect, feeding behaviour, growth regulation 3 DAT
Source text: Spodoptera littoralis (Egyptian Cotton Leafworm)
Cotton leaf discs were placed on agar in a 24-well microtiter plate and sprayed with test solutions at an application rate of 200 ppm. After drying, the leaf discs were infested with 5 L1 larvae. The samples were checked for mortality, repellent effect, feeding behaviour, and growth regulation 3 days after treatment (DAT). The following compounds gave at least 80% control of Spodoptera littoralis: I-3, II-3, II-7, V-3, XXVII-3, XXVIII-3, XXIX-3, XXXI-3.

[2] = tested on: Aedes aegypti; assay: Aedes aegypti (yellow fever mosquito) larvae test; assay type: in vivo; settings: 48 h, L2 larvae in 96-well plates, 2 days, mortality and growth inhibition
Source text: Aedes aegypti (Yellow Fever Mosquito):
10-15 Aedes larvae (L2) together with a nutrition mixture are placed in 96-well microtiter plates. Test solutions at an application rate of 2 ppm are pipetted into the wells. 2 days later, insects were checked for mortality and growth inhibition. The following compounds gave at least 80% control of Aedes aegypti: I-3, II-3, II-7, V-3, XXVII-3, XXVIII-3, XXIX-3, XXXI-3.

| SMILES | pest or weed control at 200 ppm [1] [%] | pest or weed control at 2 ppm [2] [%] |
| --- | --- | --- |
| O=C(Nc1ccc2scnc2c1C1CCN(C/C=C/c2ccc(Cl)cc2)CC1)c1ccnc(Cl)c1 [II-3, 2-Chloro-N-(4-{1-[(E)-3-(4-chloro-phenyl)-allyl]-piperidin-4-yl}-benzothiazol-5-yl)-isonicotinamide] | ≥ 80 | ≥ 80 |
| O=C(Nc1ccc2cccnc2c1C1CCN(C/C=C/c2ccc(Cl)cc2)CC1)c1ccnc(Cl)c1 [Compound I-3] | ≥ 80 | ≥ 80 |
| O=C(Nc1ccc2ncsc2c1C1CCN(C/C=C/c2ccc(Cl)cc2)CC1)c1ccnc(Cl)c1 [Compound V-3] | ≥ 80 | ≥ 80 |
| O=C(Nc1ccc2cn[nH]c2c1C1CCN(C/C=C/c2ccc(Cl)cc2)CC1)c1ccnc(Cl)c1 [XXVII-3] | ≥ 80 | ≥ 80 |
| O=C(Nc1ccc2nccnc2c1C1CCN(C/C=C/c2ccc(Cl)cc2)CC1)c1ccnc(Cl)c1 [XXVIII-3] | ≥ 80 | ≥ 80 |
| Cc1nc2c(C3=CCN(C/C=C/c4ccc(Cl)cc4)CC3)c(NC(=O)c3ccnc(Cl)c3)ccc2s1 [XXXI-3] | ≥ 80 | ≥ 80 |
| O=C(Nc1ccc2scnc2c1C1CCN(C/C=C/c2ccc(OC(F)(F)F)cc2)CC1)c1ccnc(Cl)c1 [II-7] | ≥ 80 | ≥ 80 |
| O=C(Nc1ccc2cccnc2c1C1=CCN(C/C=C/c2ccc(Cl)cc2)CC1)c1ccnc(Cl)c1 [XXIX-3] | ≥ 80 | ≥ 80 |
